In US7029695B2, “Therapeutic compositions containing glutathione analogs” (Telik, Inc., priority 2001, dated 2006):

Columns and labels:
[1] = test system: circulating neutrophil levels; settings: liposomal formulation of Example 4; 35 mg/kg i.v., 5 daily injections; normal male CD rats
Source text: Blood samples were taken for measurement of neutrophil levels daily.

[2] = test system: fluorouracil-induced neutropenia; settings: liposomal formulation of Example 4; 35 mg/kg i.v., 8 daily injections after fluorouracil 125 mg/kg i.p.; male CD rats
Protocol: Male CD rats (250–300 g) were injected intraperitoneally with either the antineoplastic drug, fluorouracil (125 mg/kg) or an equivalent volume of its vehicle (saline). […] Rats originally injected with saline rather than fluorouracil received saline intravenously (n=7). Blood samples were taken for measurement of neutrophil levels prior to the fluorouracil and every 1 to 2 days thereafter for 14 days.

With “γ-Glutamyl-S(benzyl)cysteinyl-R-phenyl glycine diethyl ester hydrochloride [Compound 9]” the circulating neutrophil levels [1] was “increased” and the “recovery from chemotherapy-induced neutropenia” value [2] was “accelerated recovery”.
